In US20060094003A1, “Acetylcholine-dependent current as a novel ionic target for atrial fibrillation” (priority 2004, published 2006):

Tests used:
Kir2.1 channels = molecular target: T1, Kir2.1 channels (Homo sapiens, UniProt P63252); conditions: at micromolar concentrations; Jin & Lu, 1999; cited from earlier work
T1 sequence (P63252 1-427): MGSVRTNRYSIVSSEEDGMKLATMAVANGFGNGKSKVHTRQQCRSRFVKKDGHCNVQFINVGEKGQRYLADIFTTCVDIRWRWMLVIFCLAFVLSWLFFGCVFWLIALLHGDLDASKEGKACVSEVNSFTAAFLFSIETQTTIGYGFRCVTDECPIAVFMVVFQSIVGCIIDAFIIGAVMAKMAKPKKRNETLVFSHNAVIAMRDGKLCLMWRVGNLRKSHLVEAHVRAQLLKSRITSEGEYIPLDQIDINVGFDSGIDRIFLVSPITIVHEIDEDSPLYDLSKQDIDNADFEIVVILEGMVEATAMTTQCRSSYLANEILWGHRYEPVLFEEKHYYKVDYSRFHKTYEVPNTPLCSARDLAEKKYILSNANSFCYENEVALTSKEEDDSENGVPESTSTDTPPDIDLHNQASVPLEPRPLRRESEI

Ito = conditions: at concentrations of 8 to 30 nM; cited from earlier work
IKATP = IKATP (Homo sapiens, UniProt Q14654); conditions: at concentrations of 8 to 30 nM; cited from earlier work
Chain of IKATP (Q14654 whole entry, species assumed, the tested form may be a part): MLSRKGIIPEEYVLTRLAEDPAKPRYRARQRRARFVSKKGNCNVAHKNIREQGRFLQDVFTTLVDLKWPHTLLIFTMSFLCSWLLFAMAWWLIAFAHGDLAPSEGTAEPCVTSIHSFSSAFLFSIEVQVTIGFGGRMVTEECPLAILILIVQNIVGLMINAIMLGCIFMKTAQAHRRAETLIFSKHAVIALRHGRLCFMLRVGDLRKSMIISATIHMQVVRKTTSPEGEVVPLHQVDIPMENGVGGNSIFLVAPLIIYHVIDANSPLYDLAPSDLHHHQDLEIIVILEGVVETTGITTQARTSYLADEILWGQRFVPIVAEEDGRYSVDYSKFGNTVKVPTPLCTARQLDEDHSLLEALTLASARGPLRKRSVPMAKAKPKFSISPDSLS
Chain of IKATP (O60706 whole entry partner, species assumed, the tested form may be a part): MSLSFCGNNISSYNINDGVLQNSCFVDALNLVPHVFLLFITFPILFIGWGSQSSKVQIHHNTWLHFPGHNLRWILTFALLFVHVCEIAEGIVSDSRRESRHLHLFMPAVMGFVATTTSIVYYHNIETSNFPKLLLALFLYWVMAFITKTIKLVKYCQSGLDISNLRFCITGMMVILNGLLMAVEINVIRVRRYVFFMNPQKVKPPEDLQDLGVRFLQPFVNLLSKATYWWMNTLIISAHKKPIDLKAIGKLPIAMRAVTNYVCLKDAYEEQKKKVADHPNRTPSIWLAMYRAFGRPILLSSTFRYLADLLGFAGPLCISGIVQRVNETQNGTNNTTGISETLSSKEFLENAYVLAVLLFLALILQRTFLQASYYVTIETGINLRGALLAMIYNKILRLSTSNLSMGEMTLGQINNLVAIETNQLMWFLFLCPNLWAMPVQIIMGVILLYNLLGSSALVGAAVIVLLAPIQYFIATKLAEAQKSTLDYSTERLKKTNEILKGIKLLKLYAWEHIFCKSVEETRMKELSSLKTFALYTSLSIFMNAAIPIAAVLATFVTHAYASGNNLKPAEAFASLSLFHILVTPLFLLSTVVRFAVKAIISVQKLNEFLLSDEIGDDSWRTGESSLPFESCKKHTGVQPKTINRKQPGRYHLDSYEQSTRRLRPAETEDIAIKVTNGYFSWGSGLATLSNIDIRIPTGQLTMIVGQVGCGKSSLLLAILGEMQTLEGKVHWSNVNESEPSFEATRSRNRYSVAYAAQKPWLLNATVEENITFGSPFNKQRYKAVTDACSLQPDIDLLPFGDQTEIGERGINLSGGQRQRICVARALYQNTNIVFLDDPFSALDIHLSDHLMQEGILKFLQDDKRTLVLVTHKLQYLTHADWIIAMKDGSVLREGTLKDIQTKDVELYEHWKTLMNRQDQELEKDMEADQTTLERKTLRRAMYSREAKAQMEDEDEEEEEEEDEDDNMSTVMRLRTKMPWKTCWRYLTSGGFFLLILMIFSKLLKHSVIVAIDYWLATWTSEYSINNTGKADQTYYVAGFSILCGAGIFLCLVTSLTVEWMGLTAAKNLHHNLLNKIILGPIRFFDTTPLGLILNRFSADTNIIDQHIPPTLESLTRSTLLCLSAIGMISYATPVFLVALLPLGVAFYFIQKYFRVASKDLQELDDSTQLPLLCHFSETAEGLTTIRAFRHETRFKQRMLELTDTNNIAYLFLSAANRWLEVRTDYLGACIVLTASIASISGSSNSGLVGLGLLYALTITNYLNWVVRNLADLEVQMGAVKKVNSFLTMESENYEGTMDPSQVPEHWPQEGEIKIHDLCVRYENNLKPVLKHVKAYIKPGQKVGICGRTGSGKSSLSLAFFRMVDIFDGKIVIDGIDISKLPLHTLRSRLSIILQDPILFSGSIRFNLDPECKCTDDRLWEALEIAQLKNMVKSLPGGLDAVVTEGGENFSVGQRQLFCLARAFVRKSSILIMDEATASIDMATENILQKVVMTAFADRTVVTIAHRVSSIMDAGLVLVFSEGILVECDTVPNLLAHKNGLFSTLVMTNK

[1] = system: AT-remodeled canine left atrial (LA) preparations; assay: Atrial tachyarrhythmia induction in AT-remodeled coronary-perfused LA preparations in vitro
Experimental: Briefly, dogs were subjected to 7-13 days of AT at about 400 beats per minute (bpm). LA preparations were then coronary-perfused and studied intact in vitro or subjected to cardiomyocyte isolation. IKH was studied with patch clamp.
Adult dogs were divided into control and AT groups. AT dogs were initially anesthetized with diazepam (0.25 mg/kg IV), ketamine (5.0 mg/kg IV), and halothane (1% to 2%) for transvenous insertion of right ventricular (RV) and right atrial (RA) unipolar pacing leads connected to ventricular and atrial pacemakers implanted in the neck. Pacing began 24 hours after pacemaker implantation. AV block was created by radiofrequency catheter ablation and the RV demand-pacemaker was programmed to 80 bpm. The RA was then tachypaced (400 bpm) for 7-13 days.
On study days, dogs were anesthetized with pentobarbital (30 mg·kg^−1 I.V.) and artificially ventilated. Hearts and adjacent lung tissue were excised via a left thoracotomy and immersed in oxygenated Tyrode solution. For cell isolation, the proximal circumflex coronary artery was cannulated and distal ends of PV myocardial sleeves were marked with silk thread prior to enzyme perfusion with collagenase (100 U mL^−1, Worthington, type II), to facilitate identification after enzymatic digestion. PVs were well-perfused and single cardiomyocytes were isolated from all PVs. After isolation, cells were stored at 4° C. and studied within 12 hours.
For standard-microelectrode experiments and atrial-tachyarrhythmia induction, intact tissue preparations including the LA and adjacent PVs were mounted in a Plexiglas chamber and perfused via the left circumflex coronary artery with oxygenated Kreb's solution at 36±0.5° C. Fine-tipped microelectrodes (resistance 15-20 MΩ when filled with 3-mol/L KCL) coupled to a high-input impedance amplifier were used to record Action Potentials.
For atrial tachyarrhythmia induction, single S2-extrastimuli following 15 S1-stimuli at basic cycle lengths (CLs) of 150-400 ms with a 5-second pause to observe the response were used. All stimuli were twice-threshold, 2-ms pulses.

tertiapin-Q
effect on Kir2.1 channels (in words) (Kir2.1 channels): minimal effects | effect on Ito (in words) (Ito): no effect | effect on IKATP (in words) (IKATP): no effect | tachyarrhythmia cycle length ([1]; 100 nM TQ, without TQ 108±0.3 ms): 179 ± 0.8 ms | mean tachyarrhythmia duration ([1]; 100 nM TQ, without TQ 11602±604 ms): 520 ± 6 ms | time to termination of arrhythmia after TQ administration ([1]; 2 cases of tachyarrhythmia lasting uninterrupted for more than 20 minutes): ≤ 4 min
